{
  "source": "paper PMC6465285",
  "about": "“Arsinothricin, an arsenic-containing non-proteinogenic amino acid analog of glutamate, is a broad-spectrum antibiotic” (Communications Biology, 2019)",
  "key": {"[1]": {"tested_on": "CP(=O)(O)CC[C@H](N)C(=O)O", "experiment": "purified protein", "details": "acetyl coenzyme A"}, "glutamine synthetase [2]": {"biological_target": "T1, glutamine synthetase (Escherichia coli, UniProt P0A9C5)", "T1 construct": "gene glnA", "T1 sequence (P0A9C5 2-469)": "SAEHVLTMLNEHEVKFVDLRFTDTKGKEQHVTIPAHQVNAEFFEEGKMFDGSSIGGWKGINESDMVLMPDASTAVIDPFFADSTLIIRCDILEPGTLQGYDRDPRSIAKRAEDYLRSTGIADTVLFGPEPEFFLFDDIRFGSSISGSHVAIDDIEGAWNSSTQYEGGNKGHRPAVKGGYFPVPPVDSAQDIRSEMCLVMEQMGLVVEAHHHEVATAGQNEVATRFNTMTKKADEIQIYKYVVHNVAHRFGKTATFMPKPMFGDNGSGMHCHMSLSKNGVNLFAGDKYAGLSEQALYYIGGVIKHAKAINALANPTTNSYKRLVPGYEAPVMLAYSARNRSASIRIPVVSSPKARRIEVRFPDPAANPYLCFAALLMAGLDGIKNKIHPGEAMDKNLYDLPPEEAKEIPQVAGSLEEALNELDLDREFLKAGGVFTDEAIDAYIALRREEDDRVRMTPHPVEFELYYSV", "experiment": "coupled ADP/NADH oxidation assay with purified enzyme", "assay_type": "biochemical"}, "glutamine synthetase [3]": {"biological_target": "T1, glutamine synthetase", "experiment": "coupled ADP/NADH oxidation assay, Km", "assay_type": "biochemical"}, "[4]": {"biological_target": "T2, PpArsN1 (ArsN1 N-acetyltransferase) (Pseudomonas putida, UniProt Q88LK7)", "T2 construct": "gene PP_1924"}, "[5]": {"biological_target": "T3, SvPAT (phosphinothricin N-acetyltransferase) (Streptomyces viridochromogenes, UniProt Q57146)", "T3 construct": "gene pat", "T3 sequence (Q57146 whole entry, looked up)": "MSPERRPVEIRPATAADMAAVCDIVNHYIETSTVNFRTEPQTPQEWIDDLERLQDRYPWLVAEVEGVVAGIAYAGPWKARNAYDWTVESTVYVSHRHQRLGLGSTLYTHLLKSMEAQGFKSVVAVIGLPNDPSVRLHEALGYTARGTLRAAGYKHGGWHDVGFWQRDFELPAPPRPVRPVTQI", "experiment": "DTNB acetyltransferase assay, Km", "details": "read-out: Specific activity (nmol s^-1 mg^-1 PpArsN1) / Km"}, "[6]": {"biological_target": "T2, PpArsN1 (ArsN1 N-acetyltransferase)", "remark": "listed apart in the source"}, "[7]": {"biological_target": "PpArsN1, arsinothricin N-acetyltransferase ArsN1 of Pseudomonas putida KT2440 (Pseudomonas putida KT2440)", "experiment": "SEC; size-exclusion chromatography of purified PpArsN1 in solution (Supplementary Figure 2); conditions not given"}},
  "data": [
    {"compound": "SvPAT (phosphinothricin N-acetyltransferase) (Streptomyces viridochromogenes DSM 40736)", "values": [
      {"measurement": "Km", "setting": "[1]", "result": "47 ± 2", "unit": "µM"},
      {"measurement": "kcat", "setting": "[1]", "result": 3.1, "unit": "s⁻¹"},
      {"measurement": "kcat/Km", "setting": "[1]", "result": 66000, "unit": "M⁻¹ s⁻¹"}
    ]},
    {"compound": "CP(=O)(O)CC[C@H](N)C(=O)O", "note": "[L-PPT, 2-amino-4-(hydroxymethylphosphinyl)butanoate]", "values": [
      {"measurement": "Ki", "setting": "glutamine synthetase [2]", "result": "400 ± 150", "unit": "nM"}
    ]},
    {"compound": "N[C@@H](CCC(=O)O)C(=O)O", "note": "[L-glutamate]", "values": [
      {"measurement": "Km", "setting": "glutamine synthetase [3]", "result": "2700 ± 600", "unit": "µM"}
    ]},
    {"compound": "C[As](=O)(O)CC[C@H](N)C(=O)O", "note": "[AST, 2-amino-4-(hydroxymethylarsinoyl)butanoate]", "values": [
      {"measurement": "Km", "setting": "[4]", "result": "11 ± 3", "unit": "µM"},
      {"measurement": "Km", "setting": "[5]", "result": "12 ± 2", "unit": "µM"}
    ]},
    {"compound": "CS(=N)(=O)CC[C@H](N)C(=O)O", "note": "(stereo partly drawn) [L-MSO, L-methionine sulfoximine]", "values": [
      {"measurement": "Specific activity (nmol s^-1 mg^-1 PpArsN1) / Substrate", "setting": "[6]", "result": "2.1 ± 0.1", "unit": "nmol/s/mg"}
    ]},
    {"compound": "PpArsN1, arsinothricin N-acetyltransferase ArsN1 of Pseudomonas putida KT2440 (enzyme)", "values": [
      {"measurement": "stoichiometry N", "setting": "[7]", "result": 2}
    ]}
  ]
}
